Results published in ChEMBL document CHEMBL1201862, “PubChem BioAssay data set” (2004).
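96-well plates; 48 h exposure; 5 concentrations. Endpoints by linear interpolation between flanking doses. Not reached: highest tested concentration assigned. Here, GI50 denotes the concentration required for 50% inhibition of growth.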 Active and inactive are the calls of the source. Cut-off read from the data, not from the text of the source: active = GI50 up to about 1.1 µM and inactive = higher.

Experiments:
Assay in all cases: inhibition of tumour cell growth, NCI panel, 48 h
EKVX = system: EKVX
Malme-3M = system: Malme-3M
MOLT-4 = system: MOLT-4
TK-10 = system: TK-10
SK-MEL-2 = system: SK-MEL-2
SN12C = system: SN12C
HCC 2998 = system: HCC 2998
K562 = system: K562
DMS-114 = system: DMS-114
NCI-H23 = system: NCI-H23
OVCAR-3 = system: OVCAR-3
U-251 = system: U-251
OVCAR-5 = system: OVCAR-5
786-0 = system: 786-0
M14 = system: M14
OVCAR-8 = system: OVCAR-8

Compound	GI50 (EKVX)	GI50 (Malme-3M)	GI50 (MOLT-4)	GI50 (TK-10)	GI50 (SK-MEL-2)	GI50 (SN12C)	GI50 (HCC 2998)	GI50 (K562)	GI50 (DMS-114)	GI50 (NCI-H23)	GI50 (OVCAR-3)	GI50 (U-251)	GI50 (OVCAR-5)	GI50 (786-0)	GI50 (M14)	GI50 (OVCAR-8)
O=C(/C=C/c1ccccc1Cl)c1cccc2ccccc12	12.8 µM (inactive)	16.1 µM (inactive)	2.16 µM (inactive)	15.8 µM (inactive)	18.4 µM (inactive)	48.6 µM (inactive)	14.5 µM (inactive)	4.38 µM (inactive)	4.46 µM (inactive)	12.6 µM (inactive)	4.4 µM (inactive)	2.66 µM (inactive)	13.6 µM (inactive)	5.15 µM (inactive)	16.3 µM (inactive)	1.97 µM (inactive)
CCCCCCCCCCCCCC(=O)OCC1OC(n2cc(F)c(=O)[nH]c2=O)C(N)C(OC(=O)CCCCCCCCCCCCC)C1O (stereo not drawn)	> 100 µM (inactive)	> 100 µM (inactive)	> 100 µM (inactive)	> 100 µM (inactive)	> 100 µM (inactive)	> 100 µM (inactive)	> 100 µM (inactive)	> 100 µM (inactive)	> 100 µM (inactive)	> 100 µM (inactive)	> 100 µM (inactive)	> 100 µM (inactive)	–	> 100 µM (inactive)	> 100 µM (inactive)	> 100 µM (inactive)
C[C@]12CC[C@H](OC(=O)Cc3ccc(N(CCCl)CCCl)cc3)CC1CC[C@@H]1C2CC[C@]2(C)NC(=O)CCC12 (stereo partly drawn)	–	15.8 µM (inactive)	3.08 µM (inactive)	19.9 µM (inactive)	25.5 µM (inactive)	5.38 µM (inactive)	18.7 µM (inactive)	4.06 µM (inactive)	6.31 µM (inactive)	11.8 µM (inactive)	4.04 µM (inactive)	11.2 µM (inactive)	–	11.5 µM (inactive)	13.2 µM (inactive)	> 10 µM (inactive)
CC(=O)O[C@H]1C(=O)[C@@]2(C)C(C(OC(=O)c3ccccc3)C3[C@@H](O)C(OC(=O)[C@@H](O)[C@H](NC(=O)c4ccccc4)c4ccc(C(F)(F)F)cc4)C(C)=C1C3(C)C)[C@]1(OC(C)=O)CO[C@@H]1C[C@@H]2O (stereo partly drawn)	> 25 µM (inactive)	> 25 µM (inactive)	11 µM (inactive)	> 25 µM (inactive)	> 25 µM (inactive)	> 25 µM (inactive)	16.2 µM (inactive)	12.4 µM (inactive)	11.3 µM (inactive)	> 25 µM (inactive)	17.7 µM (inactive)	13.3 µM (inactive)	> 25 µM (inactive)	> 25 µM (inactive)	> 25 µM (inactive)	> 25 µM (inactive)
CC1(C)OC2C(CCP(=O)(O)O)OC(c3nc(C(N)=O)cs3)C2O1 (stereo not drawn)	> 100 µM (inactive)	> 100 µM (inactive)	> 100 µM (inactive)	> 100 µM (inactive)	> 100 µM (inactive)	> 100 µM (inactive)	> 100 µM (inactive)	> 100 µM (inactive)	> 100 µM (inactive)	> 100 µM (inactive)	–	> 100 µM (inactive)	> 100 µM (inactive)	> 100 µM (inactive)	> 100 µM (inactive)	> 100 µM (inactive)
COc1ccc(C(=O)C2=NON3OC23C(=O)c2ccc(OC)cc2)cc1 (stereo not drawn)	19.3 µM (inactive)	12.9 µM (inactive)	2.59 µM (inactive)	19.7 µM (inactive)	19.5 µM (inactive)	15.3 µM (inactive)	18.1 µM (inactive)	3.12 µM (inactive)	5.96 µM (inactive)	13.2 µM (inactive)	9.59 µM (inactive)	16 µM (inactive)	20.7 µM (inactive)	3.44 µM (inactive)	15.4 µM (inactive)	8.77 µM (inactive)
CCOP(=O)(OCC)/C(C#N)=C\c1ccsc1	> 100 µM (inactive)	> 100 µM (inactive)	> 100 µM (inactive)	> 100 µM (inactive)	> 100 µM (inactive)	> 100 µM (inactive)	> 100 µM (inactive)	–	> 100 µM (inactive)	> 100 µM (inactive)	> 100 µM (inactive)	> 100 µM (inactive)	> 100 µM (inactive)	> 100 µM (inactive)	> 100 µM (inactive)	> 100 µM (inactive)
CC(C)(CN1CCCCC1)C(=O)/C=C/c1ccc(Br)cc1	2.12 µM (inactive)	5.74 µM (inactive)	2.28 µM (inactive)	3.13 µM (inactive)	3.69 µM (inactive)	2.57 µM (inactive)	16.5 µM (inactive)	2.59 µM (inactive)	1.47 µM (inactive)	2.77 µM (inactive)	2.07 µM (inactive)	2.65 µM (inactive)	2.78 µM (inactive)	2.15 µM (inactive)	2.29 µM (inactive)	2.39 µM (inactive)
COc1ccc(CCc2cc(OC)cc(OC)c2)cc1	45.1 µM (inactive)	33.7 µM (inactive)	8.17 µM (inactive)	54.2 µM (inactive)	11.1 µM (inactive)	45.9 µM (inactive)	10.2 µM (inactive)	3.34 µM (inactive)	3.9 µM (inactive)	24.2 µM (inactive)	10.9 µM (inactive)	31.6 µM (inactive)	> 61.5 µM (inactive)	47.1 µM (inactive)	25.2 µM (inactive)	66.4 µM (inactive)
COc1ccc(C(=O)C#Cc2cnc(O)nc2O)cc1	19.4 µM (inactive)	5.08 µM (inactive)	2.34 µM (inactive)	9.31 µM (inactive)	7.46 µM (inactive)	6.32 µM (inactive)	18.7 µM (inactive)	3.61 µM (inactive)	18.7 µM (inactive)	14.6 µM (inactive)	9.1 µM (inactive)	9.29 µM (inactive)	17.1 µM (inactive)	9.06 µM (inactive)	5.85 µM (inactive)	8.81 µM (inactive)
CCN(CC)CCCCC1CCN(CC(=O)N2c3ccccc3NC(=O)CC2C)CC1 (stereo not drawn)	> 100 µM (inactive)	> 100 µM (inactive)	> 100 µM (inactive)	> 100 µM (inactive)	> 100 µM (inactive)	> 100 µM (inactive)	> 100 µM (inactive)	> 100 µM (inactive)	69 µM (inactive)	> 100 µM (inactive)	> 100 µM (inactive)	> 100 µM (inactive)	> 100 µM (inactive)	> 100 µM (inactive)	> 100 µM (inactive)	> 100 µM (inactive)
O=C(/C=C/c1ccccc1O)c1ccccc1O	> 100 µM (inactive)	> 100 µM (inactive)	18.7 µM (inactive)	> 100 µM (inactive)	80.9 µM (inactive)	> 100 µM (inactive)	> 100 µM (inactive)	19.8 µM (inactive)	16.7 µM (inactive)	76.2 µM (inactive)	> 100 µM (inactive)	> 100 µM (inactive)	> 100 µM (inactive)	> 100 µM (inactive)	–	> 100 µM (inactive)
O=C1CC2CCCC23CC2(CCN13)OCCO2 (stereo not drawn)	> 100 µM (inactive)	> 100 µM (inactive)	> 100 µM (inactive)	> 100 µM (inactive)	> 100 µM (inactive)	> 100 µM (inactive)	> 100 µM (inactive)	> 100 µM (inactive)	> 100 µM (inactive)	> 100 µM (inactive)	> 100 µM (inactive)	> 100 µM (inactive)	> 100 µM (inactive)	> 100 µM (inactive)	> 100 µM (inactive)	> 100 µM (inactive)
COC(=O)[C@@H](C)[C@H]1CC[C@@](C)(CCC2=C(C)CC3C=C(C)CCC3C2(C)C)OO1 (stereo partly drawn)	1.64 µM (inactive)	1.91 µM (inactive)	1.04 µM (active)	1.91 µM (inactive)	1.59 µM (inactive)	1.06 µM (active)	1.35 µM (inactive)	1.3 µM (inactive)	1.81 µM (inactive)	1.7 µM (inactive)	1.92 µM (inactive)	1.42 µM (inactive)	1.87 µM (inactive)	0.117 µM (active)	1.73 µM (inactive)	1.92 µM (inactive)
